Where two headings read alike, the source gives them in different places.
How the values were obtained:
[1] = target: Human Glucocorticoid Receptor (GR) (Homo sapiens (Human), UniProt P04150); test: Human Glucocorticoid Receptor (GR) radioligand binding assay (competition with 3H-labeled Dexamethasone); details: full length GR, 7 nM 3H-dexamethasone, 2 h at room temperature; read-out: GR Hu Bind Filter Mean Control IC50
Protocol: Human Glucocorticoid Receptor (GR) Assay
The radioligand GR binding assay is based on a competition assay using ^3H-labeled Dexamethasone, Dexamethasone is known to bind in the ligand binding domain of GR and compete for binding with endogenous ligands like e.g. cortisol (Necela, 2003).
In the GR radioligand binding assay, test compounds were serially diluted in semi-log steps (10 concentrations) with a final concentration of 10 μM. Test compounds (1 μL) and controls (1 μL) in 100% DMSO were added to 96 Greiner V-bottom polypropylene plates. 0% control was 6.7% DMSO (final concentration in assay) and 100% control was 6.7 μM Dexamethasone.
The full length GR was diluted to a final concentration of 3.3% (0.495 mg/ml) in assay buffer (20 mM Tris-HCl, 1 mM EDTA, 10% (w/v) Glycerol, 20 mM Sodium molbydate, pH 7.4). 45 μL of GR was added to each well and the plates were incubated for 15 min at room temperature.
^3H-dexamethasone solution was diluted to a concentration of 70 nM in assay buffer (7 nM final assay concentration) and 5 μL was added to each well. The samples were mixed for 5 min using a plate shaker at 700 rpm, before incubation for 2 h at room temperature,
50 μL ice-cold charcoal solution (pH 7.4: 2% Charcoal, 0.2% Dextran T70 in 20 mM Tris-HCl, 1 mM EDTA and 20 mM Sodium molbydate) was'added to each well and the samples were mixed on plate shaker for 5 minutes.
The plate was then centrifuged for 1.5 min at 1500 rpm, the samples (80 μL) were transferred from each well to a filter plate (Millipore, 0.45 μm, MHVBN45) on a vacuum manifold and then collected into new plates (Greiner, 96 well white/transparent, 655095). The filter plate was washed once with 20 μl of water and then 100 μL of scintillation liquid was added to each well and mixed by incubation on plate shaker for 5 min. Radioactivity was measured in a 1450 Microbeta Trilux Reader (Wallac) counting cpm for 2 minutes per well. The data obtained from each replicate experiment were analysed using the software ActivityBase, version 5.4.3 (ID Business Solutions Ltd) and IC50 values were calculated. Ref: Necela, B M, Cidlowski, J A, Trends Pharmacol Sci, 24: 58, 2003

[2] = system: AP-1/TRE-activity in ChaGo-K-1 cells transfected with 5×TRE-LacZ; test: Transrepression Reporter Gene Assay (TRE-LacZ transfected ChaGo-K-1 cells, PMA stimulated); type: cell-based, human; details: PMA 10 ng/ml, Dexamethasone 10^-6 M set as 100 percent control, read-out: Agonism TRE IC50
Protocol: Transrepression Reporter Gene Assay
The human bronchogenic carcinoma cell-line, ChaGo-K-1 (ATCC: HTB 168), were transfected with 5×TRE-LacZ (clone 16:15:5 s5), i.e. TRE transfected cells, to measure transrepression activity of the selected compounds. Before use, the cells were grown for one to two weeks in selection medium containing 0.7 mg geneticin (G418)/ml medium. The cells were cultured at 37° C., 5% CO2 and 100% humidity in 96 well microtiter plates in RPMI-medium complemented with 10% fetal calf serum, 1% non-essential amino acids and 1% sodium pyruvate. The cells were passaged once weekly.
The TRE transfected cells were seeded in 96 well plates with 25-30 000 cells/well and grown for 72-96 h, to reach about 80% confluence. To stimulate the upregulation of the AP-1/TRE-activity, the cells were stimulated with 10 ng/ml Phorbol Myristate acetate (PMA) 3-5 h prior to addition of compounds. The PMA was present during the whole experiment. The TRE mediated effects (transrepression) in the transfected ChagGo-K-1 cells was measured as downregulation of β-galactosidase activity. The β-galactosidase activity for the transrepression experiments was measured by a fluorometric assay performed in microtiter plates. Cells were washed once in PBS. 180 μl of a reaction mixture containing 5 parts of Z-buffer and one part 4-methylumbelliferyl-β-D-galactosidase (MUG)-solution was then added (150 μl Z-buffer [18 μl 0.6 M Na2HPO4, 12 μl 0.6 M NaH2PO4, 7.2 μl 0.25 M KCl, 18 μl 0.01 M MgSO4, 1.8 μl 10% Triton X-100, 93 μl H2O]+30 μl 3 mM 4-methylumbelliferyl-[…]). After 60 min incubation at 37° C., 70 μl stop buffer was added to each well and the fluorescence was read in a fluorometer (Spectramax Gemini) with emission filter at 460 nm and excitation filter at 360 nm. The TRE activity was calculated as the relative activity compared to cells not treated with compounds. Inhibition of β-galactosidase by the compounds is expressed as percent inhibition compared to Dexamethasone 10^−6 M set as a 100 percent control within each experiment and DMSO 0.1% set as background control. The effect of Dexamethasone is well documented in this system and was therefore chosen as a positive control for comparison of the potency and efficacy of the compounds.

[3] = Homo sapiens, ChaGo-K-1, downregulation of β-galactosidase activity

Human Glucocorticoid Receptor (GR), sequence (P04150 whole entry): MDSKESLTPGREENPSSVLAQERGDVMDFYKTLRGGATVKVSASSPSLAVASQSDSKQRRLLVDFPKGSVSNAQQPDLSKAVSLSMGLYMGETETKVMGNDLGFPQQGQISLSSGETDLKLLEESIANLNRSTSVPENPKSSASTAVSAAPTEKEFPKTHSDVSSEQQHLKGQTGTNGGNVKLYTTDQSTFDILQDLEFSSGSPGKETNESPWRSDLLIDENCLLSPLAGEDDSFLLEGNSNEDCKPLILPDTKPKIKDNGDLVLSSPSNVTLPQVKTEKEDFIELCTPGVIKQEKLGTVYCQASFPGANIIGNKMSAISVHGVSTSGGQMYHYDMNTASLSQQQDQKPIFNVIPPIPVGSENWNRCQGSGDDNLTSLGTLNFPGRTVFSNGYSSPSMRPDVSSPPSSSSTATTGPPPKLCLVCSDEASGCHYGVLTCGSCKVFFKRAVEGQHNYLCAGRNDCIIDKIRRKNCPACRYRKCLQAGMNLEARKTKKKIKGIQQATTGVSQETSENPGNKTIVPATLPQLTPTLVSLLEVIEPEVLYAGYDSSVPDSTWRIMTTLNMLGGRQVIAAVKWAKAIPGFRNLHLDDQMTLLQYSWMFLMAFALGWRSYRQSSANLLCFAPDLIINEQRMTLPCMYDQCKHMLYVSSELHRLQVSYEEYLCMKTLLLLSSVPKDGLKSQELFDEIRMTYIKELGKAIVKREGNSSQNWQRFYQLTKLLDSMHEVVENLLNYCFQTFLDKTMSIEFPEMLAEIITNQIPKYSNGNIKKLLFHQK

IC50 [1] [nM] | IC50 [2, 3] [nM] | IC50 ([2]; downregulation of β-galactosidase activity) [nM] | SMILES
3.44 | 0.552 |  | C[C@H](NC(=O)C(C)(F)F)[C@H](Oc1ccc2c(cnn2-c2cccc(C(=O)N[C@H]3CCC[C@@H]3O)c2)c1)c1ccc2c(c1)OCOC2 [Example 18, 3-[5-({(1R,2S)-1-(4H-1,3-benzodioxin-7-yl)-2-[(2,2-difluoropropanoyl)amino]propyl}oxy)-1H-indazol-1-yl]-N-[(1S,2S)-2-hydroxycyclopentyl]benzamide]
4.27 |  | 0.6 | C[C@H](NC(=O)C(C)(F)F)[C@H](Oc1ccc2c(cnn2-c2cccc(C(=O)N[C@H]3CC[S+]([O-])C3)c2)c1)c1ccc2c(c1)OCOC2 (single isomer, unassigned) [Example 16]
0.996 | 0.754 |  | C[C@H](NC(=O)C(C)(F)F)[C@H](Oc1ccc2c(cnn2-c2cccc(C(=O)NCc3ccccc3)c2)c1)c1ccc2c(c1)OCOC2 [Example 17, 3-[5-({(1R,2S)-1-(4H-1,3-benzodioxin-7-yl)-2-[(2,2-difluoropropanoyl)amino]propyl}oxy)-1H-indazol-1-yl]-N-benzylbenzamide]
2.15 | 0.517 |  | CC[C@@H](O)CNC(=O)c1cccc(-n2ncc3cc(O[C@H](c4ccc5c(c4)OCOC5)[C@H](C)NC(=O)C(C)(F)F)ccc32)c1 [Example 11, 3-[5-({(1R,2S)-1-(4H-1,3-benzodioxin-7-yl)-2-[(2,2-difluoropropanoyl)amino]propyl}oxy)-1H-indazol-1-yl]-N-[(2R)-2-hydroxybutyl]benzamide]
1.75 | 0.145 |  | C[C@H](NC(=O)C(C)(F)F)[C@H](Oc1ccc2c(cnn2-c2cccc(C(=O)N[C@@H]3CCC[C@@H]3O)c2)c1)c1ccc2c(c1)OCOC2 [Example 14, 3-[5-({(1R,2S)-1-(4H-1,3-benzodioxin-7-yl)-2-[(2,2-difluoropropanoyl)amino]propyl}oxy)-1H-indazol-1-yl]-N-[(1R,2S)-2-hydroxycyclopentyl]benzamide]
3.64 | 0.499 |  | C[C@H](NC(=O)C(C)(F)F)[C@H](Oc1ccc2c(cnn2-c2cccc(C(=O)N[C@H]3CC[S+]([O-])C3)c2)c1)c1ccc2c(c1)OCOC2 (single isomer, unassigned) [Example 15]

Second part, the compound before the results:

SMILES | IC50 [1] [nM] | IC50 [2, 3] [nM] | IC50 ([2]; downregulation of β-galactosidase activity) [nM]
C[C@H](NC(=O)C(C)(F)F)[C@H](Oc1ccc2c(cnn2-c2cccc(C(=O)N[C@H]3CCS(=O)(=O)C3)c2)c1)c1ccc2c(c1)OCOC2 [Example 4, 3-[5-({(1R,2S)-1-(4H-1,3-benzodioxin-7-yl)-2-[(2,2-difluoropropanoyl)amino]propyl}oxy)-1H-indazol-1-yl]-N-[(3S)-1,1-dioxidotetrahydrothiophen-3-yl]benzamide] |  | 0.733 | 
C[C@H](NC(=O)C(C)(F)F)[C@H](Oc1ccc2c(cnn2-c2cccc(C(=O)NC3CCCC3)c2)c1)c1ccc2c(c1)OCCO2 [Example 7, N-cyclopentyl-3-(5-{[(1R,2S)-2-[(2,2-difluoropropanoyl)amino]-1-(2,3-dihydro-1,4-benzodioxin-6-yl)propyl]oxy}-1H-indazol-1-yl)benzamide] | 1.3 | 0.163 | 
C[C@H](NC(=O)C(C)(F)F)[C@H](Oc1ccc2c(cnn2-c2cccc(C(=O)N[C@@H]3CCC[C@@H]3O)c2)c1)c1ccc2c(c1)OCCO2 [Example 10, 3-(5-{[(1R,2S)-2-[(2,2-difluoropropanoyl)amino]-1-(2,3-dihydro-1,4-benzodioxin-6-yl)propyl]oxy}-1H-indazol-1-yl)-N-[(1R,2S)-2-hydroxycyclopentyl]benzamide] | 0.647 | 0.112 | 
C[C@H](NC(=O)C(C)(F)F)[C@H](Oc1ccc2c(cnn2-c2cccc(C(=O)NC3CCCC3)c2)c1)c1ccc2c(c1)OCOC2 [Example 8, 3-[5-({(1R,2S)-1-(4H-1,3-benzodioxin-7-yl)-2-[(2,2-difluoropropanoyl)amino]propyl}oxy)-1H-indazol-1-yl]-N-cyclopentylbenzamide] | 0.796 | 0.388 | 
C[C@H](NC(=O)C(C)(F)F)[C@H](Oc1ccc2c(cnn2-c2cccc(C(=O)N[C@@H]3CCS(=O)(=O)C3)c2)c1)c1ccc2c(c1)OCOC2 [Example 3, 3-[5-({(1R,2S)-1-(4H-1,3-Benzodioxin-7-yl)-2-[(2,2-difluoropropanoyl)amino]propyl}oxy)-1H-indazol-1-yl]-N-[(3R)-1,1-dioxidotetrahydrothiophen-3-yl]benzamide] |  | 0.344 | 
